Data on 35 molecules can be found in patent publication US20150133426A1, “SUBSTITUTED PYRROLOPYRIMIDINES” (BAYER PHARMA AKTIENGESELLSCHAFT, priority 2012, published 2015).

As a reminder, the IC50 is the concentration that gives 50% inhibition. A lower IC50 goes with inhibition by little substance.

In this experiment the target is T1, human full-length MKNK1 (Homo sapiens, UniProt Q9BUB5, T385D).
T1 construct: purchased Carna Biosciences 02-145; host or cells: insect cells, baculovirus expression system
T1 sequence (Q9BUB5 1-424 isoform Q9BUB5-2 T344D): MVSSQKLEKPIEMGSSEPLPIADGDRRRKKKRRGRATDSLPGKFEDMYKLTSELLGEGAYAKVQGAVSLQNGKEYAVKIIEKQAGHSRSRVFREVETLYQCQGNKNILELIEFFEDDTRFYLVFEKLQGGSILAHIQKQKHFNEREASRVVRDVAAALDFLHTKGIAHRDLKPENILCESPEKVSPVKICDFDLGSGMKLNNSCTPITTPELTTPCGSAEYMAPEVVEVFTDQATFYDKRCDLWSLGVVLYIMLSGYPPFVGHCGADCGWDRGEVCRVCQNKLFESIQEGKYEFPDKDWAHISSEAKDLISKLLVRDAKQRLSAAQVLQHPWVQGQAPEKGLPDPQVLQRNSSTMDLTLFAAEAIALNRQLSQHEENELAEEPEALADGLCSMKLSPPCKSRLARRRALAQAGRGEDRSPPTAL
The experiment can be described thus: MKNK1 kinase high ATP assay (TR-FRET). The format is biochemical. The conditions noted are these: high ATP (2 mM), 15 min preincubation with enzyme, GST-MKNK1 (T344D). The method in brief: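 GST-tagged full-length human MKNK1 (aa 1-424, T344D), baculovirus-expressed, preincubated 15 min with compound, then reacted 30 min at 22 °C with 2 mM ATP and 0.06 µM biotinylated peptide (final).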
Background: TR-FRET usually uses a lanthanide donor and a delayed reading to cut background.

Bounds are passed on as bounds.

Molecule `c1nc(Nc2ccc3[nH]ncc3c2)c2c3c([nH]c2n1)CCC3` [Example 69, N-(1H-Indazol-5-yl)-5,6,7,8-tetrahydrocyclopenta[4,5]pyrrolo[2,3-d]pyrimidin-4-amine] gave an IC50 of 507 nM.
Molecule `CC(C)Oc1cc(F)ccc1Nc1ncnc2[nH]c3c(c12)CCC3` [Example 70, N-(4-Fluoro-2-isopropoxyphenyl)-5,6,7,8-tetrahydrocyclopenta[4,5]pyrrolo[2,3-d]pyrimidin-4-amine] registered an IC50 of 48 nM.
In the case of `O=S1(=O)CCc2[nH]c3ncnc(Nc4ccc5[nH]ncc5c4)c3c2C1` [Example 83, N-(1H-Indazol-5-yl)-5,7,8,9-tetrahydrothiopyrano[3′,4′:4,5]pyrrolo[2,3-d]pyrimidin-4-amine 6,6-dioxide] it was 62 nM; in that of `CC(C)Oc1cc(F)ccc1Nc1ncnc2[nH]c3c(c12)CS(=O)(=O)CC3` [Example 84, N-(4-Fluoro-2-isopropoxyphenyl)-5,7,8,9-tetrahydrothiopyrano[3′,4′:4,5]pyrrolo[2,3-d]pyrimidin-4-amine 6,6-dioxide], 82 nM; in that of `COc1ccc(F)cc1Nc1ncnc2[nH]c3c(c12)CCCC3` [Example 108], 126 nM.
In the case of `Nc1cc(F)c([N+](=O)[O-])cc1Nc1ncnc2[nH]c3c(c12)CCCC3` [Example 109] it was at least 20000 nM; in that of `O=c1[nH]c2ccc(Nc3ncnc4[nH]c5c(c34)CCCC5)cc2[nH]c1=O` [Example 110], 12200 nM; in that of `Nc1ccc2c(c1)N(c1ncnc3[nH]c4c(c13)CCCC4)CC2` [Example 111], 1100 nM.
Turning to `COc1cc2[nH]ncc2cc1Nc1ncnc2[nH]c3c(c12)CCCC3` [Example 112], the IC50 was 6 nM. Compared with the last molecule, the IC50 is about 180-fold lower.
The same measure for `Nc1ccc2c(c1)CCN2c1ncnc2[nH]c3c(c12)CCCC3` [Example 113]: 683 nM.
The molecule `Clc1ccc(Nc2ncnc3[nH]c4c(c23)CCCC4)cc1Cl` [Example 114] had an IC50 of 1490 nM.
In the case of `O=c1[nH]c2ccc(Nc3ncnc4[nH]c5c(c34)CCCC5)cc2[nH]1` [Example 115] it was 1790 nM; in that of `c1ccc(OC2CCCC2)c(Nc2ncnc3[nH]c4c(c23)CCCC4)c1` [Example 116], at least 20000 nM; in that of `O=c1[nH]c2ccc(Nc3ncnc4[nH]c5c(c34)CCCC5)cc2s1` [Example 117], 58 nM.
The same measure for `c1ccc(N2CCOCC2)c(Nc2ncnc3[nH]c4c(c23)CCCC4)c1` [Example 118]: at least 20000 nM; for `COc1ccc(C(F)(F)F)cc1Nc1ncnc2[nH]c3c(c12)CCCC3` [Example 119]: at least 20000 nM.
With `c1ccc2c(c1)CCN2c1ncnc2[nH]c3c(c12)CCCC3` [Example 120], it took 8350 nM to reach half-maximal inhibition (IC50).
The same measure for `O=[N+]([O-])c1ccc2c(c1)N(c1ncnc3[nH]c4c(c13)CCCC4)CC2` [Example 121]: at least 20000 nM; for `Clc1ccc2c(c1)CCN2c1ncnc2[nH]c3c(c12)CCCC3` [Example 122]: 4290 nM.
`O=[N+]([O-])c1ccc2c(c1)CCN2c1ncnc2[nH]c3c(c12)CCCC3` [Example 123]: the IC50 was found to be 1550 nM.
With `CC(C)Oc1ccc(Cl)cc1Nc1ncnc2[nH]c3c(c12)CCCC3` [Example 124], the IC50 is 1740 nM.
In the case of `COc1ccc(Cl)cc1Nc1ncnc2[nH]c3c(c12)CCCC3` [Example 125] it was 104 nM.
In the case of `CC(C)Oc1cc2[nH]ncc2cc1Nc1ncnc2[nH]c3c(c12)CCCC3` [Example 126] it was 5 nM; in that of `CC(C)Oc1ccc(Br)cc1Nc1ncnc2[nH]c3c(c12)CCCC3` [Example 127], 6270 nM.
Consider `COc1ccc(Br)cc1Nc1ncnc2[nH]c3c(c12)CCCC3` [Example 128], for which half-maximal inhibition (IC50) was put at 313 nM. This IC50 is about 20-fold lower than that of the molecule before.
In turn, `COc1cc(NS(C)(=O)=O)ccc1Nc1ncnc2[nH]c3c(c12)CCCC3` [Example 129] gave an IC50 of 4050 nM. This IC50 lies about 13-fold higher than the previous one.
In the case of `c1ccc(OC2CCOCC2)c(Nc2ncnc3[nH]c4c(c23)CCCC4)c1` [Example 130, N-[2-(tetrahydro-2H-pyran-4-yloxy)phenyl]-6,7,8,9-tetrahydro-5H-pyrimido[4,5-b]indol-4-amine] it was 89 nM; in that of `COc1cc2[nH]ncc2cc1Nc1ncnc2[nH]c3c(c12)CC(F)(F)CC3` [Example 141], 6 nM; in that of `O=c1[nH]c2ccc(Nc3ncnc4[nH]c5c(c34)CC(F)(F)CC5)cc2s1` [Example 142], 38 nM.
The same measure for `CC(C)Oc1ccc(Cl)cc1Nc1ncnc2[nH]c3c(c12)CC(F)(F)CC3` [Example 143]: 407 nM; for `COc1ccc(Cl)cc1Nc1ncnc2[nH]c3c(c12)CC(F)(F)CC3` [Example 144]: at least 20000 nM; for `COc1ccc(C(F)(F)F)cc1Nc1ncnc2[nH]c3c(c12)CC(F)(F)CC3` [Example 145]: at least 20000 nM.
In turn, `CC(C)Oc1cc2[nH]ncc2cc1Nc1ncnc2[nH]c3c(c12)CC(F)(F)CC3` [Example 232, 6,6-Difluoro-N-[6-(propan-2-yloxy)-1H-indazol-5-yl]-6,7,8,9-tetrahydro-5H-pyrimido[4,5-b]indol-4-amine] came in with an IC50 of 5 nM.
The same measure for `O=c1[nH]c2cc(Cl)c(Nc3ncnc4[nH]c5c(c34)CCCC5)cc2s1` [Example 236, 5-Chloro-6-(6,7,8,9-tetrahydro-5H-pyrimido[4,5-b]indol-4-ylamino)-1,3-benzothiazol-2(3H)-one]: 55 nM; for `COc1cc2[nH]c(=O)sc2cc1Nc1ncnc2[nH]c3c(c12)CC(F)(F)CC3` [Example 238, 6-[(6,6-Difluoro-6,7,8,9-tetrahydro-5H-pyrimido[4,5-b]indol-4-yl)amino]-5-methoxy-1,3-benzothiazol-2(3H)-one]: 10 nM.
